We go through one substance from US12565665B2, “Compositions and methods for controlled mRNA translation and stability” (TRUSTEES OF BOSTON UNIVERSITY, priority 2022, dated 2026).

Holding throughout (format): cell-based, human
The subject of experiment [1] is T2A (G18R) construct. Briefly: Sense codon editing (AGG to IGG) of T2A (G18R), UAS-H2B-mCherry reporter cells, flow cytometry. The conditions noted are these: 30 ng ADAR construct, n=3. The source says: To test inducible ADAR recoding of a protein's amino acid composition, a construct was designed that contained: a CD8 signal peptide, an HA epitope tag, the self-labeling Halo Tag, a mutant variant of the thosea asigna virus 2A self-cleaving peptide that is defective for ribosome skipping (Gly 18Arg mutation), the DNA binding domain of Gal4, and a 4× repeat of the transcriptional activation domain from herpes virus (VP64) (see e.g., FIG. 37a). The penultimate glycine in 2A peptides is invariant (see e.g., FIG. 37b) and any mutation leads to defective ribosome skipping. The codon for the G18R residue (AGG) is in a dsRNA hairpin with the high affinity MS2-C motif, which acts as a substrate for targeted MCP-ADAR. In the absence of ADAR editing, the defective T2A sequence will lead to the topological sequestering of the Gal4-VP64 transcription factor in the ER lumen due to the fusion to the secreted HaloTag (see e.g., FIG. 37c). Upon ADAR editing of the Arg18 codon to glycine (AGG to IGG), the T2A regains the function of ribosome skipping. This leads to the protein domains downstream of the T2A sequence to be translated as a separate polypeptide in the cytoplasm, whereby the GAL4-VP64 transcription factor translocate to the nucleus and turn on the expression of a fluorescent H2B-mCherry reporter (see e.g., FIG. 37c).
To test this, an in-house clonal HEK293FT cell line that contains an integrated UAS-H2B-mCherry reporter was co-transfected with the editable T2A (also called T2A*) construct (3 ng, 0.3 ng and 0.03 ng) and cither MCP-dADAR or MCP-ADAR (30 ng). A GAL4-VP64 positive control was also transfected into HEK cells. One day post-transfection, cells were lifted and analyzed by flow cytometry. Transfected cells were gated by TagBFP, the median H2B-mCherry fluorescence for the population was calculated and H2B-mCherry positive populations within the transfected cells were determined by the percentage of cells above 0.5% of non-transfected control cells per replicate (n=3) by FLOWJO.

Experiment [2] deals with T2A* construct. Briefly: Western blot (FLAG) of T2A* construct co-transfected with MCP-ADAR constructs. The conditions noted are these: 3 ng T2A* and 30 ng ADAR construct; lysates 48 hours later. The method, then: Additionally, the clonal HEK line was co-transfected with 3 ng of the T2A* construct and 30 ng of either filler DNA, MCP-dADAR, or MCP-ADAR. 48 hours later lysates were collected with 1×LDS-PAGE loading buffer (THERMOFISHER) on ice. The samples were sonicated, centrifuged, and boiled at 70° C. for 10 min after the addition of 1×Reducing Agent (THERMOFISHER). The samples were run on a 4%-12% bis-tris polyacrylamide gel at 175V for 45 minutes, and the samples were transferred onto a nitrocellulose membrane using the IBLOT (THERMOFISHER). Samples were probed for FLAG tag (Direct-Blot™ HRP anti-[…] Tag Antibody, “[…]” is disclosed as SEQ ID NO: 406) and GAPDH-loading control (Direct-Blot™ HRP anti-GAPDH Antibody) respectively.
In general terms: Immunoblotting shows a protein as a band on a membrane.

The test system of experiment [3] is AUA reporter. Nature of the experiment: Creation of a START codon (AUA to AUI), EGFPd2/dTomato reporter, flow cytometry. The conditions noted are these: 48 hours post-transfection, n=3. The source says:
To test this, an ADAR substrate was designed composed of a dsRNA hairpin containing both an AUA-codon with a mismatch at the second adenine to promote specific deamination to AUI (as opposed to IUA or IUI) and an MS2 operator motif (see e.g., FIG. 26b). The design of one large dsRNA hairpin was chosen to promote correct folding of RNA secondary structures. Previous studies have shown that MS2 operators in the 5′UTR of eukaryotic mRNA can lead to decreased translational efficiency when co-expressed with its corresponding coat protein (MS2 coat protein, or MCP), so high and low affinity variants of the MS2 operator (called here MS2-C and MS2-A respectively for the base at the stem loop) were tested with the idea that the lower affinity MS2-A loop would be less likely to inhibit translation by coat protein alone. As positive controls, the same loops were also designed with the correct AUG start codon.
These designs were cloned into pcDNA3 vectors containing a bidirectional CMV promoter driving constitutive dTomato and EGFPd2 (see e.g., FIG. 26c). The S′UTR and start codon of EGFPd2 were replaced with the editable start codon designs so the translational efficiency could be measured by looking at the EGFPd2 fluorescence relative to dTomato when co-expressed with MCP-ADAR. In this construct, if the correct start codon is skipped, the next AUG codon leads to a short, out of frame translation product.
HEK293FT cells were co-transfected with each of the reporter constructs (MS2-C w/ AUG start, MS2-C w/ AUA start, MS2-A w/ AUG start, and MS2-A w/ AUA start) and either filler DNA, inactivated ADAR2-DD (E396A) fused to MCP (MCP-dADAR), or active ADAR2-DD (E488Q) fused to MCP (MCP-ADAR). 48 hours post-transfection, cells were lifted and analyzed by flow cytometry. Transfected cells were gated by dTomato, and the median EGFPd2-to-dTomato ratio for the population was calculated per replicate (n=3) by FLOWJO. 2-Way ANOVA was performed to determine significance.
In general terms: A flow cytometer gives signals particle by particle.

Regarding “MCP-linker-ADAR2(E488Q)-TagBFP [MCP-ADAR]”, the “population expressing any H2B-mCherry compared to dADAR, 0.03 ng T2A*” value in experiment [1] (0.03 ng T2A* construct) was “significantly higher”. For the same substance, in experiment [1] (0.3 ng T2A* construct), the “population expressing any H2B-mCherry compared to dADAR, 0.3 ng T2A*” value is reported as “significantly higher”. For the same substance, in experiment [1] (3 ng T2A* construct, one day post-transfection), the “median H2B-mCherry expression compared to inactive MCP-dADAR control” value is reported as “significant increase”. Further, the “FLAG staining of the main HaloTag-T2A*-FLAG-Gal4-VP64 fusion product (~67 kDa)” value in experiment [2] is given as “reduced staining”. In experiment [3], the “effect on translational efficiency from a native AUG start codon, MS2-A substrate” value is “more modest negative effect on translational efficiency”; the “increase of relative fluorescence, MS2-C w/ AUA reporter, relative to NT” value is on record as “not significant”; the “relative EGFPd2/dTomato fluorescence, MS2-A w/ AUA substrate” value is given as “significant increase”. For the same substance, the “relative fluorescence (EGFPd2-to-dTomato) of MS2-C reporters compared with filler DNA (NT)” value in experiment [3] (2-Way ANOVA) is “significantly decreased the relative fluorescence”.
